From publication PMC12299463, “Cladolosides of Groups S and T: Triterpene Glycosides from the Sea Cucumber Cladolabes schmeltzii with Unique Sulfation; Human Breast Cancer Cytotoxicity and QSAR” (Marine Drugs, 2025)
Values joined by “and” are separate entries in the source; they are usually repeats but may differ in a detail not shown here. Equal entries are not always repeated. Structures can show the parent of a compound that is named as a salt. Where two headings read alike, the source gives them in different places.

Tests used:
[1] = tested on: MDA-MB-231 triple-negative breast cancer cells; assay: cells; assay type: cell-based, human; conditions: for Selectivity Index (SI), MDA-MB-231: ratio of IC50 for healthy (MCF-10A) and MDA-MB-231 cells
[2] = tested on: T-47D human breast cancer cells; assay: cells; assay type: cell-based; conditions: for Selectivity Index (SI), T-47D: ratio of IC50 for healthy (MCF-10A) and T-47D cells;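 on all read-outs here: cell viability read as absorbance of formazan dye at 570 nm, each experiment run in triplicate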
human erythrocytes = assay: Hemolytic activity against human erythrocytes; assay type: cell-based; conditions: for ED50, Erythrocytes (hemolytic activity): 1 h at 37 °C
Description: A total of 450 g of human blood (B(III) Rh+) was used to obtain erythrocytes by centrifuging three times for 5 min with phosphate-buffered saline (PBS) (pH 7.4) at 4 °C on a centrifuge LABOFUGE 400R (Heraeus, Hanau, Germany). Ice-cold PBS (pH 7.4) was used for resuspension of erythrocyte residue to a final optical density of 1.5 at 700 nm. Then, 20 µL of tested compound solutions or control (cucumarioside A0-1 [15]) were added to 180 µL of erythrocyte suspension in V-bottom 96-well plates and incubated for 1 h at 37 °C. After centrifugation (900 g, 10 min, laboratory centrifuge LMC-3000 (Biosan, Riga, Latvia)), 100 µL of supernatant was transferred into new flat plates. The values of erythrocyte lysis were measured on microplate photometer Multiskan FC (Thermo Fisher Scientific, Waltham, MA, USA) at λ = 570 nm as hemoglobin concentration in supernatant. […] All the experiments were carried out in triple repetitions, p < 0.05.

[3] = tested on: MCF-7 human breast cancer cells; assay: cells; assay type: cell-based;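 further: IC50 values, including those behind the selectivity ratio, derive from formazan absorbance at 570 nm, tested in triplicate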
in vitro = assay type: cell-based, human; conditions: human
[4] = tested on: MCF-10A non-tumor mammary epithelial cell line; assay: in vitro; assay type: cell-based, human
[5] = Homo sapiens, MDA-MB-231, read-out: Cytotoxicity, IC50, MDA-MB-231
[6] = Homo sapiens, T47D, read-out: Cytotoxicity, IC50, T-47D
[7] = Homo sapiens, MCF7, read-out: Cytotoxicity, IC50, MCF-7
[8] = MTT assay, MDA-MB-231, read-out: Cytotoxicity, IC50, MDA-MB-231
[9] = MTT assay, T-47D, read-out: Cytotoxicity, IC50, T-47D
[10] = MTT assay, MCF-7, read-out: Cytotoxicity, IC50, MCF-7
[11] = MTT assay, MCF-10A, read-out: Cytotoxicity, IC50, MCF-10A

Row | Compound | IC50 [1, 5] | IC50 [2, 6] | Hemolytic (membranolytic) activity, in words (human erythrocytes) | ED50, Erythrocytes (hemolytic activity) (human erythrocytes) | IC50 [3, 7] | IC50 (in vitro) | Selectivity Index (SI), MDA-MB-231 [1] | Selectivity Index (SI), T-47D [2] | IC50 [1] | IC50 [2] | IC50 [3] | IC50 [4] | ED50, Erythrocytes (hemolytic activity) (human erythrocytes; listed as cladoloside I2 (29)) | IC50 [1, 8] | IC50 [2, 9] | ED50, Erythrocytes (hemolytic activity) (human erythrocytes; listed as C (13)) | ED50, Erythrocytes (hemolytic activity) (human erythrocytes; listed as cladoloside C (13)) | IC50 [3, 10] | IC50 [4, 11] | Selectivity Index (SI), MCF-7 ([3]; ratio of IC50 for healthy (MCF-10A) and MCF-7 cells)
1 | CO[C@@H]1[C@@H](O)[C@H](O[C@@H]2[C@@H](O)[C@H](O[C@H]3[C@H](O)[C@@H](O)[C@H](O[C@H]4[C@H](O[C@H]5CC[C@]6(C)C7=CCC89C(=O)O[C@@](C)([C@@H](CCC(C)C)OC(C)=O)[C@H]8[C@@H](OC(C)=O)C[C@@]9(C)[C@@H]7CC[C@H]6C5(C)C)OC[C@@H](O[C@@H]5OC[C@@H](O)[C@H](O)[C@H]5O)[C@@H]4O)O[C@@H]3C)OC[C@H]2O)O[C@H](COS(=O)(=O)O)[C@H]1O (stereo partly drawn) [Cladoloside S1 (2), 3β-O-{6-O-sodium sulfate-3-O-methyl-β-D-glucopyranosyl-(1→3)-β-D-xylopyranosyl-(1→4)-β-D-quinovopyranosyl-(1→2)-[(1→4)-β-D-xylopyranosyl]-β-D-xylopyranosyl}-16S,22R-diacetoxyholost-9-en] | > 20 µM | > 20 µM | moderately active | 4.78 ± 0.30 µM | > 20 µM | > 20 µM | – | – | – | – | – | – | – | – | – | – | – | – | – | –
2 | C=C(C)CC[C@@H](OC(C)=O)[C@]1(C)OC(=O)C23CC=C4[C@@H](CC[C@H]5C(C)(C)[C@@H](O[C@@H]6OC[C@@H](O[C@@H]7OC[C@@H](O)[C@H](O)[C@H]7O)[C@H](O)[C@H]6O[C@@H]6O[C@H](C)[C@@H](O[C@@H]7OC[C@@H](O)[C@H](O[C@@H]8O[C@H](COS(=O)(=O)O)[C@@H](O)[C@H](OC)[C@H]8O)[C@H]7O)[C@H](O)[C@H]6O)CC[C@]45C)[C@]2(C)C[C@H](OC(C)=O)[C@@H]31 (stereo partly drawn) [Cladoloside S (1), 3β-O-{6-O-sodium sulfate-3-O-methyl-β-D-glucopyranosyl-(1→3)-β-D-xylopyranosyl-(1→4)-β-D-quinovopyranosyl-(1→2)-[(1→4)-β-D-xylopyranosyl]-β-D-xylopyranosyl}-16S,22R-diacetoxyholosta-9,25-diene] | 13.2 ± 1.08 µM | 14.8 ± 0.71 µM | moderately active | 3.40 ± 0.25 µM | > 20 µM | > 20 µM | >1.51 | >1.35 | – | – | – | – | – | – | – | – | – | – | – | –
3 | C=C(C)CC[C@@H](OC(C)=O)[C@]1(C)OC(=O)C23CC=C4[C@@H](CC[C@H]5C(C)(C)[C@@H](O[C@@H]6OC[C@@H](O[C@@H]7O[C@H](CO)[C@@H](O)[C@H](O[C@@H]8O[C@H](CO)[C@@H](O)[C@H](OC)[C@H]8O)[C@H]7O)[C@H](O)[C@H]6O[C@@H]6O[C@H](C)[C@@H](O[C@@H]7OC[C@@H](O)[C@H](O[C@@H]8O[C@H](CO)[C@@H](O)[C@H](OS(=O)(=O)O)[C@H]8O)[C@H]7O)[C@H](O)[C@H]6O)CC[C@]45C)[C@]2(C)C[C@H](OC(C)=O)[C@@H]31 (stereo partly drawn) [Cladoloside T (3), 3β-O-{3-O-sodium sulfate-β-D-glucopyranosyl-(1→3)-β-D-xylopyranosyl-(1→4)-β-D-quinovopyranosyl-(1→2)-[3-O-methyl-β-D-glucopyranosyl-(1→3)-β-D-glucopyranosyl-(1→4)]-β-D-xylopyranosyl}-16S,22R-diacetoxyholosta-9,25-diene] | – | – | – | 0.39 µM and 0.39 ± 0.03 µM | – | – | – | – | 3.41 ± 0.33 µM | 8.21 ± 0.72 µM | 8.99 ± 0.61 µM | 8.23 ± 0.52 µM | – | – | – | – | – | – | – | –
4 | C=C(C)CC[C@@H](OC(C)=O)[C@]1(C)OC(=O)C23CC=C4[C@@H](CC[C@H]5C(C)(C)[C@@H](O[C@@H]6OC[C@@H](O[C@@H]7O[C@H](CO)[C@@H](O)[C@H](O)[C@H]7O)[C@H](O)[C@H]6O[C@@H]6O[C@H](C)[C@@H](O[C@@H]7OC[C@@H](O)[C@H](O[C@@H]8O[C@H](COS(=O)(=O)[O-])[C@@H](O)[C@H](OC)[C@H]8O)[C@H]7O)[C@H](O)[C@H]6O)CC[C@]45C)[C@]2(C)C[C@H](OC(C)=O)[C@@H]31.[Na+] (stereo partly drawn) [I2 (29), cladoloside I2] | – | – | – | 4.24 ± 0.31 µM | – | – | – | – | > 20 µM | > 20 µM | > 20 µM | > 20 µM | 4.24 µM | – | – | – | – | – | – | –
5 | cladoloside C [Cladoloside C (13)] | – | – | high activity | – | – | – | >1.54 | >1.61 | – | – | – | – | – | 13 ± 0.8 µM | 12.4 ± 0.66 µM | 0.44 ± 0.05 µM | 0.44 µM | > 20 µM | > 20 µM | –
6 | cucumarioside A0-1 [reference compound] | – | – | – | 1.63 ± 0.21 µM | – | – | 2.13 | 0.89 | – | – | – | – | – | 3.53 ± 0.54 µM | 8.46 ± 0.53 µM | – | – | 11.3 ± 1 µM | 7.51 ± 0.63 µM | 0.66
